Results from PubChem BioAssay (NCI).
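Test compounds were applied to cells in 96-well plates for 48 hours at 5 doses. GI50 is the concentration that inhibits growth by half. At the TGI there is no net growth.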

What was measured:
Assay in all cases: growth of human tumour cells (NCI), 48 h
[1] = test system: SF-295 CNS
[2] = test system: NCI-H460 lung
[3] = test system: K-562 leukemia
[4] = test system: SK-OV-3 ovarian
[5] = test system: NCI/ADR-RES ovarian
[6] = test system: HS 578T breast
[7] = test system: KM12 colon
[8] = test system: SK-MEL-28 melanoma
[9] = test system: SW-620 colon
[10] = test system: UACC-62 melanoma
[11] = test system: COLO 205 colon
[12] = test system: MDA-MB-231 breast
[13] = test system: SF-268 CNS
[14] = test system: MOLT-4 leukemia
[15] = test system: OVCAR-8 ovarian
[16] = test system: A549 NSCLC
[17] = test system: BT-549 breast
[18] = test system: T-47D breast
[19] = test system: HCT-15 colon
[20] = test system: 786-0 renal
[21] = test system: HT29 colon
[22] = test system: HCC-2998 colon
[23] = test system: MCF7 breast
[24] = test system: SK-MEL-2 melanoma
[25] = test system: SNB-75 CNS
[26] = test system: SNB-19 CNS
[27] = test system: SK-MEL-5 melanoma
[28] = test system: SF-539 CNS
[29] = test system: HOP-62 NSCLC
[30] = test system: PC-3 prostate
[31] = test system: DU-145 prostate
[32] = test system: MALME-3M melanoma
[33] = test system: ACHN renal
[34] = test system: HCT-116 colon
[35] = test system: U251 CNS
[36] = test system: NCI-H522 lung
[37] = test system: OVCAR-3 ovarian
[38] = test system: OVCAR-4 ovarian
[39] = test system: RPMI-8226 leukemia
[40] = test system: A498 renal
[41] = test system: NCI-H23 lung
[42] = test system: TK-10 renal
[43] = test system: UACC-257 melanoma
[44] = test system: EKVX NSCLC
[45] = test system: SN12C renal
[46] = test system: MDA-MB-435
[47] = test system: M14 melanoma
[48] = test system: LOX IMVI melanoma
[49] = test system: UO-31 renal
[50] = test system: RXF 393 renal
[51] = test system: SR leukemia
[52] = test system: HL-60(TB) leukemia
[53] = test system: CCRF-CEM leukemia
[54] = test system: NCI-H226 lung
[55] = test system: HOP-92 NSCLC
[56] = test system: IGROV1 ovarian
[57] = test system: CAKI-1 renal

O=C1C=CC2(NN=C(c3ccccc3)N2c2ccccc2)c2cccc(O)c21 (centres undefined)
GI50 [1]: 1.34 µM | TGI [1]: 3.18 µM | GI50 [2]: 2.56 µM | TGI [2]: 10.2 µM | GI50 [3]: 1.6 µM | TGI [3]: 21 µM | GI50 [4]: 11.8 µM | TGI [4]: 98 µM | GI50 [5]: 1.62 µM | TGI [5]: 30.9 µM | GI50 [6]: 2.86 µM | TGI [6]: 7.63 µM | GI50 [7]: 2.65 µM | TGI [7]: 18 µM | GI50 [8]: 1.99 µM | TGI [8]: 4.38 µM | GI50 [9]: 1.67 µM | TGI [9]: 3.64 µM | GI50 [10]: 1.05 µM | TGI [10]: 2.26 µM | GI50 [11]: 1.89 µM | TGI [11]: 3.83 µM | GI50 [12]: 2.37 µM | TGI [12]: 33.9 µM | GI50 [13]: 1.84 µM | TGI [13]: 14.3 µM | GI50 [14]: 6.81 µM | TGI [14]: > 100 µM | GI50 [15]: 2.4 µM | TGI [15]: > 100 µM | GI50 [16]: 1.84 µM | TGI [16]: 5 µM | GI50 [17]: 1.13 µM | TGI [17]: 2.69 µM | GI50 [18]: 4.88 µM | TGI [18]: 37.7 µM | GI50 [19]: 0.472 µM | TGI [19]: 2.37 µM | GI50 [20]: 6.13 µM | TGI [20]: 43 µM | GI50 [21]: 2.53 µM | TGI [21]: 6.21 µM | GI50 [22]: 3.83 µM | TGI [22]: 13 µM | GI50 [23]: 1.5 µM | TGI [23]: 3.83 µM | GI50 [24]: 4.6 µM | TGI [24]: 21.5 µM | GI50 [25]: 1.82 µM | TGI [25]: 3.44 µM | GI50 [26]: 1.59 µM | TGI [26]: 10.8 µM | GI50 [27]: 0.272 µM | TGI [27]: 0.706 µM | GI50 [28]: 1.26 µM | TGI [28]: 2.79 µM | GI50 [29]: 0.693 µM | TGI [29]: 2.22 µM | GI50 [30]: 3.19 µM | TGI [30]: > 100 µM | GI50 [31]: 1.27 µM | TGI [31]: 2.56 µM | GI50 [32]: 1.28 µM | TGI [32]: 2.58 µM | GI50 [33]: 3.11 µM | TGI [33]: 21.5 µM | GI50 [34]: 1.38 µM | TGI [34]: 5.26 µM | GI50 [35]: 0.587 µM | TGI [35]: 20.2 µM | GI50 [36]: 1.21 µM | TGI [36]: 3.4 µM | GI50 [37]: 1.08 µM | TGI [37]: 3.7 µM | GI50 [38]: 0.698 µM | TGI [38]: 3.21 µM | GI50 [39]: 3.52 µM | TGI [39]: > 100 µM | GI50 [40]: 5.52 µM | TGI [40]: 19.6 µM | GI50 [41]: 0.46 µM | TGI [41]: 2.18 µM | GI50 [42]: 5.46 µM | TGI [42]: 46 µM | GI50 [43]: 1.47 µM | TGI [43]: 2.93 µM | GI50 [44]: 1.41 µM | TGI [44]: 14.5 µM | GI50 [45]: 1.47 µM | TGI [45]: 2.84 µM | GI50 [46]: 0.185 µM | TGI [46]: 0.336 µM | GI50 [47]: 1.3 µM | TGI [47]: 2.6 µM | GI50 [48]: 0.275 µM | TGI [48]: 1.28 µM | GI50 [49]: 1.46 µM | TGI [49]: 7.67 µM | GI50 [50]: 7.36 µM | TGI [50]: 25 µM | GI50 [51]: 4.38 µM | TGI [51]: 76.9 µM | GI50 [52]: 2.77 µM | TGI [52]: 8.03 µM | GI50 [53]: 4.83 µM | TGI [53]: > 100 µM | GI50 [54]: 1.83 µM | TGI [54]: 4.53 µM | GI50 [55]: 22.8 µM | TGI [55]: 54.2 µM | GI50 [56]: 3.19 µM | TGI [56]: 17.1 µM | GI50 [57]: 5.71 µM | TGI [57]: 50.3 µM
